Data published in patent US7119090B2, “Pyrrole substituted 2-indolinone protein kinase inhibitors” (Sugen, Inc., priority 1998, dated 2006).
pIC50: −log10 of the molar value. Blank lines part the entries; values can stand above or below the compound they belong to.

How the values were obtained:
C6 glioma tumors = C6 glioma tumors subcutaneously implanted in mice, oral administration; type: in vivo; details: 200 mg/kg/day, day 18 post-implantation, subcutaneous C6 tumors in BALB/c nu/nu mice
Method: The following protocol can be used to perform xenograft experiments:
Female athymic mice (BALB/c, nu/nu) are obtained from Simonsen Laboratories (Gilroy, Calif.). All animals are maintained under clean-room conditions in Micro-isolator cages with Alpha-dri bedding. They receive sterile rodent chow and water ad libitum.
Cell lines are grown in appropriate medium (for example, MEM, DMEM, Ham's F10, or Ham's F12 plus 5%-10% fetal bovine serum (FBS) and 2 mM glutamine (GLN)). All cell culture media, glutamine, and fetal bovine serum are purchased from Gibco Life Technologies (Grand Island, N.Y.) unless otherwise specified. All cells are grown in a humid atmosphere of 90-95% air and 5-10% CO2 at 37° C. All cell lines are routinely subcultured twice a week and are negative for mycoplasma as determined by the Mycotect method (Gibco).
Cells are harvested at or near confluency with 0.05% Trypsin-EDTA and pelleted at 450 x g for 10 min. […] Tumor growth is measured over 3 to 6 weeks using venier calipers. Tumor volumes are calculated as a product of length×width×height unless otherwise indicated. P values are calculated using the Students t-test. […]
The compounds also maintain excellent activity when tested in vivo. […] Tumor growth was measured using vernier calipers and tumor volumes were calculated as the product of length×width×height. […]

[1] = Potency in vitro (data not shown)
PDGFR = biological target: T1, PDGFR (Homo sapiens, UniProt P09619); assay: Inhibition constant (Ki) against PDGFR; type: biochemical; details: data not shown
T1 construct: expressed in transfected cells; host or cells: NIH 3T3 cells expressing PDGFR-β (lysate, Screening Lab, SUGEN)
T1 sequence (P09619 33-1106): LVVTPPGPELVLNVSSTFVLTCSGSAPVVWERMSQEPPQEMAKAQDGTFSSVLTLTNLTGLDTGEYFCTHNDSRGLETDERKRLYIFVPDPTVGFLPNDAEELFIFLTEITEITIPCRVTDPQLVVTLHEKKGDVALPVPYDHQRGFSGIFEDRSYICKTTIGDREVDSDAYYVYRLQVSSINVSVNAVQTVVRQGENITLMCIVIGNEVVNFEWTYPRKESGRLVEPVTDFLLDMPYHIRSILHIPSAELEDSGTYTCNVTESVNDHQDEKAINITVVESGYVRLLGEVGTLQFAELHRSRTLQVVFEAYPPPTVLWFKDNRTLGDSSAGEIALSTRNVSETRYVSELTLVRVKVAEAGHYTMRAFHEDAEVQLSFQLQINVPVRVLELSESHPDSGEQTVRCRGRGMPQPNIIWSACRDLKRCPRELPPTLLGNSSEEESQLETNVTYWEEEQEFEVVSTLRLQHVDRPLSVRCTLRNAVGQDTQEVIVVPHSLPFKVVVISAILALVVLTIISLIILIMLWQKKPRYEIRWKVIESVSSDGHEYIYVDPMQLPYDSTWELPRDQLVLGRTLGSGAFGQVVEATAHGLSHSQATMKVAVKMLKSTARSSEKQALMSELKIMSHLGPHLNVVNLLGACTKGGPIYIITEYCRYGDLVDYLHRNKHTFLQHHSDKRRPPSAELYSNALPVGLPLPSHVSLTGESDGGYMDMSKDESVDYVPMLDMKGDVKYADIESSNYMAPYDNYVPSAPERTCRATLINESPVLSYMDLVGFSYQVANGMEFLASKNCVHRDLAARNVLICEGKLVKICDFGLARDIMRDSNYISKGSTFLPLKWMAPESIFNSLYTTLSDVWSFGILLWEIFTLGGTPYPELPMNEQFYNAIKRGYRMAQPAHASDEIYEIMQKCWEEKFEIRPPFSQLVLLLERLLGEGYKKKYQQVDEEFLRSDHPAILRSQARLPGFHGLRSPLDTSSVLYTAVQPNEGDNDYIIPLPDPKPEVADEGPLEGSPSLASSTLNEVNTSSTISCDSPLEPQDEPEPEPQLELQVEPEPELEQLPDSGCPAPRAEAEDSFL

HUV-EC-C cells (VEGF) = assay: HUV-EC-C assay, VEGF-stimulated 3H-thymidine incorporation (HUVEC-VEGF); type: cell-based; details: Homo sapiens; Table 1
Method: (§1) The following protocol may also be used to measure a compound's activity against PDGF-R, FGF-R, VEGF, aFGF or Flk-1/KDR, all of which are naturally expressed by HUV-EC cells.
(§2) 1. […] After cells have detached from the flask, add an equal volume of assay medium and transfer to a 50 ml sterile centrifuge tube (Fisher Scientific, catalogue no. 05-539-6).
(§3) 2. Wash the cells with about 35 ml assay medium in the 50 ml sterile centrifuge tube by adding the assay medium, centrifuge for 10 minutes at approximately 200x g, aspirate the supernatant, and resuspend with 35 ml D-PBS. Repeat the wash two more times with D-PBS, resuspend the cells in about 1 ml assay medium/is cm^2 of tissue culture flask. Assay medium consists of F12K medium (Gibco BRL, catalogue no. 21127-014) and 0.5% heat-inactivated fetal bovine serum. Count the cells with a Coulter Counter® (Coulter Electronics, Inc.) and add assay medium to the cells to obtain a concentration of 0.8-1.0×10^5 cells/ml.
(§4) 3. Add cells to 96-well flat-bottom plates at 100 μl/well or 0.8-1.0×10^4 cells/well, incubate −24h at 37° C., 5% CO2.
(§5) 1. Make up two-fold test compound titrations in separate 96-well plates, generally 50 μM on down to 0 μM. Use the same assay medium as mentioned in day 0, step 2 above. Titrations are made by adding […] of test compound at 200 μM (4X the final well concentration) to the top well of a particular plate column. Since the stock test compound is usually 20 mM in DMSO, the 200 μM drug concentration contains 2% DMSO.
(§6) A diluent made up to 2% DMSO in assay medium (F12K+0.5% fetal bovine serum) is used as diluent for the test compound titrations in order to dilute the test compound but keep the DMSO concentration constant. Add this diluent to the remaining wells in the column at 60 μl/well. Take 60 μl from the 120 μl of 200 μM test compound dilution in the top well of the column and mix with the 60 μl in the second well of the column. Take 60 μl from this well and mix with the 60 μl in the third well of the column, and so on until two-fold titrations are completed. When the next-to-the-last well is mixed, take 60 μl of the 120 μl in this well and discard it. Leave the last well with 60 μl of DMSO/media diluent as a non-test compound-containing control. Make 9 columns of titrated test compound, enough for triplicate wells each for: (1) VEGF (obtained from Pepro Tech Inc., catalogue no. 100-200, (2) endothelial cell growth factor (ECGF) (also known as acidic fibroblast growth factor, or aFGF) (obtained from Boehringer Mannheim Biochemica, catalogue no. 1439 600), or, (3) human PDGF B/B (1276-956, Boehringer Mannheim, Germany) and assay media control. ECGF comes as a preparation with sodium heparin.
(§7) 2. Transfer 50 μl/well of the test compound dilutions to the 96-well assay plates containing the 0.8-1.0×10^4 cells/100 μl/well of the HUV-EC-C cells from day 0 and incubate […] at 37° C., 5% CO2.
(§8) 3. In triplicate, add 50 μl well of […] VEGF, 20 ng/ml ECGF, or media control to each test compound condition. As with the test compounds, the growth factor concentrations are 4X the desired final concentration. Use the assay media from day 0 step 2 to make the concentrations of growth factors. Incubate approximately 24 hours at 37° C., 5% CO2. Each well will have 50 μl test compound dilution, 50 μl growth factor or media, and 100 μl cells, which calculates to 200 μl/well total. Thus the 4X concentrations of test compound and growth factors become 1X once everything has been added to the wells.
(§9) 1. Add ^3H-thymidine (Amersham, catalogue no. TRK-686) at 1 μCi/well (10 μl/well of 100 μCi/ml solution made up in RPMI media +10% heat-inactivated fetal bovine serum) and incubate ˜24 h at 37° C., 5% CO2. RPMI is obtained from Gibco BRL, catalogue no. 11875-051.
(§10) 1. Freeze plates overnight at −20° C. […]

HUV-EC-C cells (aFGF) = assay: HUV-EC-C assay, aFGF (ECGF)-stimulated 3H-thymidine incorporation (HUVEC-aFGF); type: cell-based; details: Homo sapiens; Table 1
Method: as §1, §2, §3, §4, §5, §6, §7, §8, §9, §10

SMILES: O=C(O)CCc1c(/C=C2\C(=O)Nc3ccc(Br)cc32)[nH]c2c1CCCC2 [Compound 65]
inhibition of tumor growth (C6 glioma tumors): approximately 65%
potency in vitro compared to compound 5 [1]: almost an order of magnitude greater potency in vitro

Ki (inhibition constant) against PDGFR, compared to compound 70 (PDGFR): significantly smaller
SMILES: Cc1[nH]c(/C=C2\C(=O)Nc3ccccc32)c(C)c1CCC(=O)O [Example 5, 3-[2,4-Dimethyl-5-(2-oxo-1,2-dihydroindol-3-ylidenemethyl)-1H-pyrrol-3-yl]-propionic acid]

SMILES: CC1C(CCC(=O)O)=CNC1/C=C1\C(=O)Nc2ccccc21 (stereo not drawn) [Compound 71]
inhibition of tumor growth (C6 glioma tumors): 51%

pIC50 (HUV-EC-C cells (VEGF)): 5.00
SMILES: Cc1[nH]c(/C=C2\C(=O)Nc3cc(-c4ccccc4)ccc32)c(C)c1CCC(=O)O [Example 32, 3-[2,4-Dimethyl-5-(2-oxo-6-phenyl-1,2-dihydroindol-3-ylidenemethyl)-1H-pyrrol-3-yl]-propionic acid]
pIC50 (HUV-EC-C cells (aFGF)): 5.00
